Laboratory results published in patent US11467160B2, “Method of therapy selection for patient suffering from glioblastoma” (INSERM (Institut National de la Santé et de la Recherche …, priority 2017, dated 2022).
“Also recorded” adds a separate entry of the source.

Assays:
glioma cell invasion = details: preclinical phase; cited from earlier work
CD90high RNS cells = assay: Viability of CD90high RNS cells; assay type: cell-based, human
[1] = system: primary CD90high GBM lines; assay: Boyden chamber migration assay, primary CD90high GBM lines (RNS and RADH); assay type: cell-based, human; details: CD90high RNS (n=4) and RADH (n=4) cells, 24-hours Boyden chamber assay
Experimental: FIG. 3: CD90 signals through SRC, FAK and RhoA molecules and CD90 dependent migration is blocked by dasatinib in vitro and in vivo. Parental (wt), control (shCTR #), CD90-down expressing (shCD90 #, n=3) U251 cells; as well as parental (wt), control (CTR #) and CD90 expressing (CD90 #, n=3) U87 cells were cultured at low cell density, lysed and analyzed by Western-blot for phosphoSRC, SRC, phosphoFAK, FAK and β-actin expression. Protein phosphorylation levels were calculated as described in Materials and Methods part (A). CD90low (black) and CD90high (blank) RNS (n=12, square symbol) and RADH (n=6, circle symbol) cells were analyzed by Western-blot for phosphoSRC, SRC, phosphoFAK, FAK and β-actin expression. Protein phosphorylation levels were calculated in (B). […] Brains were collected and sections were analyzed after H&E staining (F). […]
Tumor specimens and cell culture—GBM samples were obtained after informed consent from patients admitted to the neurosurgery department at Rennes University Hospital for surgical resection in accordance with the local ethic committee. […] The extent of surgery was evaluated with an enhanced magnetic resonance imaging (MRI) performed within 24 hours after the resection. […]

U87 CD90 cells [2] = assay: Boyden chamber migration assay, U87 CD90 cells; assay type: cell-based, human; details: for U87 CD90 cell migration: 10 μM inhibitor, 15 minutes pre-incubation, kept during 24-hours Boyden chamber assay
Experimental: (§1) FIG. 3: CD90 signals through SRC, FAK and RhoA molecules and CD90 dependent migration is blocked by dasatinib in vitro and in vivo. Parental (wt), control (shCTR #), CD90-down expressing (shCD90 #, n=3) U251 cells; as well as parental (wt), control (CTR #) and CD90 expressing (CD90 #, n=3) U87 cells were cultured at low cell density, lysed and analyzed by Western-blot for phosphoSRC, SRC, phosphoFAK, FAK and β-actin expression. Protein phosphorylation levels were calculated as described in Materials and Methods part (A). CD90low (black) and CD90high (blank) RNS (n=12, square symbol) and RADH (n=6, circle symbol) cells were analyzed by Western-blot for phosphoSRC, SRC, phosphoFAK, FAK and β-actin expression. Protein phosphorylation levels were calculated in (B). CD90-expressing parental U251 and CD90 #1 U87 cells were tested in a 24-hours Boyden chamber migration assay as described in FIG. 2 in the presence of DMSO (as control), PP2, dasatinib (both SRC inhibitors), Y15 (FAK inhibitor) and Y-27632 (ROCK inhibitor) (C). CD90-expressing parental U251 and CD90 #1 U87 cells were transfected without (siØ), with siRNA GL2 (control) or siRNA RhoA during 48 hours, and tested in a 24-hours Boyden chamber migration assay (D). RhoA expression was tested by Western-blot (D). Migration was given by the number of migrated cells obtained per field (C and D). CD90high RNS (n=4, square symbol) and RADH (n=4, circle symbol) cells were tested in a 24-hours Boyden chamber migration assay in the presence of DMSO or dasatinib (E). Representative fields are shown in (E). CD90 expressing U87 cells were orthotopically implanted in immunocompromised mice brain. One week after injection, mice were fed with control vehicle (n=7) or dasatinib (40 mg/kg/day, n=7) for 20 days. Control and dasatinib-treated mice were sacrificed 28 days after injection. Brains were collected and sections were analyzed after H&E staining (F). (*): p<0.05; (**): p<0.01; (***): p<0.001.
Preparation of CD90 knocked-down U251 and CD90 expressing U87 GBM cell lines—U251 cells were transfected with pLKO.1-puro plasmids containing shRNA constructs targeting CD90 mRNA and targeting non-mammalian mRNA (Sigma-Aldrich) using the Lipofectamine 2000 reagent (Life Technologies, St Aubin, France) according to the manufactor's instructions. After one week of culture under the selective antibiotic puromycin used at 10 μg/ml, transfected U251 cells were amplified and then cloned in 96-well plates at 0.1 cell/well. CD90 knocked-down U251 cell lines were expanded and selected for their decreased expression of CD90. U87 cells were transfected with CD90 cDNA (GeneWiz, Sigma-Aldrich) cloned into the pLKO.1-puro plasmid with EcoRI and BamHI enzymes using the Lipofectamine 2000 reagent. […]

[3] = system: bevacizumab-treated recurrent GBM patients; details: phase II trial (Lassman 2015); cited from earlier work
U87 CD90 cells [4] = assay: Orthotopic xenograft mouse model with U87 CD90 cells; assay type: in vivo, mice
Experimental: as §1, with “CD90high RNS (n=4, square symbol) and RADH (n=4, circle symbol) cells were tested in a 24-hours Boyden chamber migration assay in the presence of DMSO or dasatinib (E). Representative fields are shown in (E). CD90 expressing U87 cells were orthotopically implanted in immunocompromised mice brain. One week after injection, mice were fed with control vehicle (n=7) or dasatinib (40 mg/kg/day, n=7) for 20 days. Control and dasatinib-treated mice were sacrificed 28 days after injection.” left out, “(*): p<0.05; (**): p<0.01; (***): p<0.001.” left out
Orthotopic mouse model—Eight-weeks old male Balb/c NOD-SCID mice (Janvier, Saint Berthevin, France) were housed in an animal care unit authorized by the French Ministries of Agriculture and Research (Biosit, Rennes, France—Agreement No. B35-238-40). […] Mice were daily clinically monitored and sacrificed 28 days after implantation. […] Tumor burden was compared in the different groups of mice and analyzed using ImageJ software. […]
To evaluate the CD90-dependent effects of dasatinib in vivo, U87 CD90 cells were used in an orthotopic xenograft mouse model. […] Mice were analyzed using MRI 28 days post-injection and were sacrificed. […]

[5] = system: CD90-expressing parental U251 cells; assay: Boyden chamber migration assay, parental U251 cells; assay type: cell-based, human; details: for U251 cell migration: 10 μM inhibitor, 15 minutes pre-incubation, kept during 24-hours Boyden chamber assay
Experimental: as §1
Boyden chamber migration assay—Parental, controls and transfected U251 and U87 cell lines were washed in DMEM, placed in Boyden chambers (10^5 cells/chamber in DMEM) that were placed in DMEM 20% FBS and incubated at 37° C. for 24 hours. After 24 hours, Boyden chambers were washed in PBS and cells were fixed in PBS 0.5% paraformaldehyde. Non-migrated cells inside the chambers were removed and cells were then stained with Giemsa (RAL Diagnostics, Martillac, France). After washes in PBS, pictures of 5 different fields were taken. Migration was given by the mean of number of migrated cells observed per field. […]

GBM patients [6] = details: combined with temozolomide (Stupp 2014); cited from earlier work
GBM patients [7] = details: phase III clinical trial (Levin 2006); cited from earlier work
recurrent GBM patients = details: Phase II, with temozolomide (Groves 2002); cited from earlier work
[8] = dasatinib 40 mg/kg fed daily for 20 days from one week post-implantation, 28 days post-injection
[9] = 1 μM, 24-hours Boyden chamber assay

Cc1nc(Nc2ncc(C(=O)Nc3c(C)cccc3Cl)s2)cc(N2CCN(CCO)CC2)n1 [dasatinib, N-(2-chloro-6-methylphenyl)-2-[[6-[4-(2-hydroxyethyl)piperazin-1-yl]-2-methylpyrimidin-4-yl]amino]-1,3-thiazole-5-carboxamide]
Inhibiting bevacizumab-induced glioma cell invasion (glioma cell invasion): promising effect
Viability of CD90high RNS cells (CD90high RNS cells): affects viability
Migration of primary CD90high GBM lines [1]: dramatically reduced
U87 CD90 cell migration (U87 CD90 cells [2]): dramatically reduced
Improvement of bevacizumab-treated recurrent GBM patients [3]: failed to improve
CD90 tumor migration/invasion properties in vivo (U87 CD90 cells [4]; U87 CD90 orthotopic xenograft, dasatinib 40 mg/kg): dramatically reduces; also recorded: blocks; also recorded: inhibits
Mice with clear encapsulated tumors with regular edges, H&E staining (U87 CD90 cells [4]; [8]): 4 out of 7
Mice with clear encapsulated tumors with regular edges, MRI (U87 CD90 cells [4]; [8]): 3 out of 4
U251 cell migration [5]: dramatically reduced

C[C@@H](N)[C@H]1CC[C@H](C(=O)Nc2ccncc2)CC1 [Y27632]
inhibition at 10 µM (U87 CD90 cells [2]; Homo sapiens, U87 CD90 cells, 10 μM, 24-hours Boyden chamber assay, read-out: Migration inhibition (reduction)): 76%
inhibition at 10 µM ([5]; Homo sapiens, U-251, U251 cells, 10 μM, 24-hours Boyden chamber assay, read-out: Migration inhibition (reduction)): 53%

Cl.Cl.Cl.Cl.Nc1cc(N)c(N)cc1N [Y15]
Effect on the migration of U87 CD90 cells (U87 CD90 cells [2]; [9]): no or limited effect
Effect on the migration of U251 cells [5, 9]: no or limited effect

CC(C)(C)n1nc(-c2ccc(Cl)cc2)c2c(N)ncnc21 [PP2]
U87 CD90 cell migration (U87 CD90 cells [2]): dramatically reduced
U251 cell migration [5]: dramatically reduced

CC(C)[C@H]1C(=O)N[C@@H](CCCN=C(N)N)C(=O)NCC(=O)N[C@@H](CC(=O)O)C(=O)N[C@H](Cc2ccccc2)C(=O)N1C [Cilengitide]
Effects on GBM patients (GBM patients [6]): limited effects

CNC(=O)[C@@H](NC(=O)[C@H](CC(C)C)[C@H](O)C(=O)NO)C(C)(C)C [marimastat]
Patient survival (GBM patients [7]): failed to improve
Effects on recurrent GBM patients (recurrent GBM patients): encouraging effects
